Measured values: patent US20140234455A1, “ANTIMICROBIAL COMPOSITION, METHOD FOR ITS PREPARATION AND ITS USE” (PATOLAB OY, priority 2011, published 2014)

Legend:
Assay type in all cases: cell-based
Conditions in all cases: tested after one week washing, 24 hours incubation, Example 2 stock diluted 1:1 with tap water
[1] = system: C. albicans; test: Challenge test on a steel plate (EN 13697)
[2] = system: E. coli; test: Challenge test on a steel plate (EN 13697)
Procedure: The test was performed after one week washing the steel plate with the composition.

[3] = system: A. niger; test: Challenge test on a steel plate (EN 13697)
[4] = system: Staphylococcus aureus (MRSA); test: ISO 20645/20743 challenge test in accordance with EN 13697 on a steel plate
[5] = system: PS. aerug.; test: Challenge test on a steel plate (EN 13697)
[6] = system: Enteroc.; test: Challenge test on a steel plate (EN 13697)

CCO [70% ethanol, ethanol]
log 1: Reduction in growth of microorganisms, C. albicans [1] | Reduction in growth of microorganisms, E. coli [2] | Reduction in growth of microorganisms, A. niger [3] | Reduction in growth of microorganisms, MRSA (Staphylococcus aureus) [4] | Reduction in growth of microorganisms, PS. aerug. [5] | Reduction in growth of microorganisms, Enteroc. [6]
